As a reminder, the IC50 is the point on the concentration scale where inhibition reaches its midpoint. What is called AUC is concentration integrated over time. The MRT is the average time that molecules of a dose stay in the body.

Experimental findings from patent US10906905B2, “Five-membered heteroaryl ring bridged ring derivative, preparation method therefor and medical use thereof” (Jiangsu Hengrui Medicine Co., Ltd., priority 2016, dated 2021) are described below.

The target of data set [1] is recombinant human VEGFR2 enzyme (Homo sapiens (Human), UniProt P35968). Description: Inhibition of VEGFR2 kinase activity (Z'-LYTE Kinase Assay Kit). Type of data set: biochemical. Conditions: ATP 50 μM; read-out: IC50 of inhibition effect on VEGFR2 kinase activity. The protocol:
The inhibition effect of VEGFR2 kinase activity in vitro was determined by the following method.
The inhibition effect of the compounds of the present invention on VEGFR2 kinase activity was determined by the following experimental method:
After reaction at 25° C. for 2 hours, 5 μL of detection reagent was added to each well. […] The IC50 values of the compounds for enzyme inhibition were calculated using Graphpad prism software based on each concentration of the compound and the corresponding signal value thereof.

A further data set relates to NIH3T3 cell. Description: Inhibition of NIH3T3 cell proliferation (CellTiter-Glo). As to conditions: Mus musculus, 72 hours, 0.5% FBS. Type of data set: cell-based. In general terms: Cellular ATP, detected with luciferase, serves as a proxy for viable cell number.
A short description of data set [2]: Pharmacokinetics assay in rats after intragastrical administration. Type of data set: in vivo. As to conditions: both sexes, Sprague-Dawley, rat, plasma, po, SD rats, 2 mg/kg; for Vd/F: read-out: Apparent distribution volume Vz/F; for AUC: read-out: Area under curve AUC; for CL/F: read-out: Clearance CLz/F; for half-life: read-out: Half-life T1/2 (converted); for Cmax: read-out: Plasma concentration Cmax; for MRT: read-out: Residence time MRT. The protocol:
Rats were used as test animals. The drug concentration in plasma at different time points was determined by LC/MS/MS method after intragastrical administration of the compounds of Examples 1-1, 1-2, 2-1, 3-1, the compound with retention time of 6.631 minutes among Examples 9-1 and 9-2, and the compounds of Examples 33 and 39-1 to rats. The pharmacokinetic behavior of the compounds of the present invention was studied and evaluated in rats.
Compounds of Examples 1-1, 1-2, 2-1, 3-1, compound with retention time of 6.631 minutes among Examples 9-1 and 9-2, and compounds of Examples 33 and 39-1.
Twenty-eight healthy adult Sprague-Dawley (SD) rats (half male and half female) were purchased from SINO-BRITISH SIPPR/BK LAB. ANIMAL LTD., CO, with Certificate No.: SCXK (Shanghai) 2008-0016, and equally divided into 7 groups (4 rats per group).
A certain amount of the test compound was weighed, and added with 5% by volume of DMSO, 5% by volume of Tween 80, and 90% by volume of physiological saline were added to prepare a 0.2 mg/mL colorless, clear and transparent solution.
After an overnight fast, SD rats were administered intragastrically the test compounds at an administration dosage of 2.0 mg/kg and an administration volume of 10.0 mL/kg.
The rats were intragastrically administered the compounds of Examples 1-1, 1-2, 2-1, 3-1, the compound with retention time of 6.631 minutes among Examples 9-1 and 9-2, and the compounds of Examples 33 and 39-1.0.2 mL of blood was taken from the orbital sinus before administration and at 0.5, 1.0, 2.0, 4.0, 6.0, 8.0, 11.0 and 24.0 hours after administration. The samples were stored in heparinized tubes, and centrifuged for 10 minutes at 4° C. at 3,500 rpm to separate the blood plasma. The plasma samples were stored at −20° C. The rats were fed 2 hours after administration.
The content of the test compounds in the plasma of rats after intragastrical administration of the test compounds at different concentrations was determined: 25 μL of rat plasma at each time after administration was taken, added with 50 μL (100 ng/mL) of the internal standard solution of camptothecin and 175 μL of acetonitrile, shaken vertically for 5 minutes, and centrifuged for 10 minutes (4000 rpm). 3.0 μL of the supernatant was taken from the plasma samples for LC/MS/MS analysis.

recombinant human VEGFR2 enzyme, sequence (P35968 20-1356): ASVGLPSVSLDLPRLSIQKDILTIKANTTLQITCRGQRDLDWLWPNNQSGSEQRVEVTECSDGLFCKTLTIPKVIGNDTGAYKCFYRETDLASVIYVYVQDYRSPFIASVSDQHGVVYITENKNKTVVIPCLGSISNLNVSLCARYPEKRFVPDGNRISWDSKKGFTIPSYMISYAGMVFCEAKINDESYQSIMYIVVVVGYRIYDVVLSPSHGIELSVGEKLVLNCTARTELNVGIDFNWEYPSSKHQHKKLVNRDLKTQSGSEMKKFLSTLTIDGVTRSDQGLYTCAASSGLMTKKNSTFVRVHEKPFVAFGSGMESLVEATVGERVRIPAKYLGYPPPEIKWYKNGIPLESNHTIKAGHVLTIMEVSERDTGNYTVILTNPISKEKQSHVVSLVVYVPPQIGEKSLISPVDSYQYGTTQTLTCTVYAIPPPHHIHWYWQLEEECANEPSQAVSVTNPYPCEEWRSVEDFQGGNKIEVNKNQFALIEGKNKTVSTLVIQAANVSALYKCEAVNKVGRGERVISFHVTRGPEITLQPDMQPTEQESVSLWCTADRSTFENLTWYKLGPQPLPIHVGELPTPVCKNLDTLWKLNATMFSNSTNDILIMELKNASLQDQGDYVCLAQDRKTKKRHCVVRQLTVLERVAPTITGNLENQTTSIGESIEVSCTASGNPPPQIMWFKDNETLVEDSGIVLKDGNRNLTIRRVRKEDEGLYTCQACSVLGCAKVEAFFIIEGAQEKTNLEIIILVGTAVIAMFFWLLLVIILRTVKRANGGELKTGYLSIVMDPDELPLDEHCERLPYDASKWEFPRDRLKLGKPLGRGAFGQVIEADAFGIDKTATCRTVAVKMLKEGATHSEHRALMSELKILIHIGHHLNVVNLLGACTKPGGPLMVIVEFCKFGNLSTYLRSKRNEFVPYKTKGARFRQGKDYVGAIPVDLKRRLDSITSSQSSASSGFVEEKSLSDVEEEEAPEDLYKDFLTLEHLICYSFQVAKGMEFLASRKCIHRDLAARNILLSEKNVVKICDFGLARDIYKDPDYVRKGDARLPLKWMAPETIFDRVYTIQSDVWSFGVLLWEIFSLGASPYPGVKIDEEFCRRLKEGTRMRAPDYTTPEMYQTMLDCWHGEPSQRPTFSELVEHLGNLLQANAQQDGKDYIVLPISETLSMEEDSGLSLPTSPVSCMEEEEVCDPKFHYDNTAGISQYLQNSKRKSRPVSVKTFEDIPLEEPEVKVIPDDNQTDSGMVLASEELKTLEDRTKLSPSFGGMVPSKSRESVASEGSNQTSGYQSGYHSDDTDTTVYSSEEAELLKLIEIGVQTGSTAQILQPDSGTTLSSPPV

In the case of `Cc1cccc(-c2nc3n(c2-c2ccnc(-c4ccc(S(C)(=O)=O)cc4)c2)[C@H]2CC[C@@H]3C2)n1` [Example 3-1, (5S,8R)-2-(6-Methylpyridin-2-yl)-3-(2-(4-(methylsulfonyl)phenyl)pyridin-4-yl)-5,6,7,8-tetrahydro-5,8-methanoimidazo[1,2-a]pyridine], the IC50 in data set [1] stood at 2890 nM. This compound showed an IC50 in the data set on NIH3T3 cell of 28 nM. Also, in data set [2], the Vd/F worked out at 3.3 ± 1.1 L/kg, the AUC was 800 ± 208 ng·h/mL, the CL/F turned out to be 43.4 ± 10.4 mL/min/kg and the half-life was 0.868 ± 0.1 h. Besides, in data set [2], the Cmax was 502 ± 128 ng/mL and the MRT worked out at 1.43 ± 0.06 h.

Turning to `Cc1cccc(-c2nc3n(c2-c2ccc4nnc(C(N)=O)n4c2)[C@H]2CC[C@@H]3C2)n1` [Example 2-1, 6-((5S,8R)-2-(6-Methylpyridin-2-yl)-5,6,7,8-tetrahydro-5,8-methanoimidazo[1,2-a]pyridin-3-yl)[1,2,4]triazolo[4,3-a]pyridine-3-carboxamide], in data set [1], the IC50 worked out at 1160 nM. The compound further yielded an IC50 in the data set with NIH3T3 cell of 44 nM. For the same compound, in data set [2], the Vd/F came to 7.8 ± 1.33 L/kg, the AUC worked out at 664 ± 93 ng·h/mL, the CL/F turned out to be 50.8 ± 7.2 mL/min/kg and the half-life is 1.77 ± 0.2 h. In addition, in data set [2], the Cmax came to 351 ± 52 ng/mL and the MRT came to 2.3 ± 0.37 h.

Consider `NC(=O)c1ccnc2ccc(-c3c(-c4ccc(F)cn4)nc4n3[C@H]3CC[C@@H]4C3)cc12` [Example 39-1, 6-((5S,8R)-2-(5-Fluoropyridin-2-yl)-5,6,7,8-tetrahydro-5,8-methanoimidazo[1,2-a]pyridin-3-yl)quinoline-4-carboxamide], for which the IC50 in data set [1] is 6300 nM. The IC50 in the data set on NIH3T3 cell was 88 nM. Moreover, in data set [2], the Vd/F turned out to be 18.3 ± 17.4 L/kg, the AUC is 689 ± 609 ng·h/mL, the CL/F worked out at 121 ± 116 mL/min/kg and the half-life was 2.06 ± 0.86 h. In addition, in data set [2], the Cmax was found to be 317 ± 269 ng/mL and the MRT was 2.44 ± 1.16 h.

In the case of `Cc1cccc(-c2nc3n(c2-c2ccc4nccc(C(N)=O)c4c2)[C@H]2CC[C@@H]3C2)n1` [Example 1-1, 6-((5S,8R)-2-(6-Methylpyridin-2-yl)-5,6,7,8-tetrahydro-5,8-methanoimidazo[1,2-a]pyridin-3-yl)quinoline-4-carboxamide], the 50% inhibitory concentration (IC50) in data set [1] was 3050 nM. The IC50 in the data set with NIH3T3 cell was 89 nM. Besides, in data set [2], the Vd/F came to 23.5 ± 19.4 L/kg, the AUC was 637 ± 355 ng·h/mL, the CL/F came out at 68.6 ± 39.2 mL/min/kg and the half-life is 3.42 ± 1.29 h. Also, in data set [2], the Cmax was 208 ± 61 ng/mL and the MRT amounted to 3.88 ± 0.26 h.
